Measurements published in patent publication US20110003757A1, “PHARMACEUTICAL COMPOSITIONS FOR TREATING FATTY LIVER DISEASE” (ASTELLAS PHARMA INC., priority 2008, published 2011).

Legend:
[1] = tested on: KK-A^y mice; test: Liver triglyceride content in nonalcoholic simple fatty liver model (KK-A^y mice); format: in vivo; details: for Effect on liver triglyceride content (in words): versus vehicle; for Liver triglyceride content: mean±standard error
Method: KK-A^y mice (female, purchased from CLEA Japan, Inc.) were used. The mice were fed with CMF (for special breeding, purchased from Oriental Yeast Co., Ltd., Japan) ad libitum. At 14 weeks of age, they were measured for their body weight, blood glucose levels, plasma insulin levels, plasma triglyceride levels and plasma alanine aminotransferase (ALT), and then divided into two groups such that these items were equal between the groups (8 animals per group). The first group was administered with vehicle (0.5% methylcellulose) at a dose of 10 mL/kg, and the second group was administered with a choline salt of (1S)-1,5-anhydro-1-[5-(azulen-2-ylmethyl)-2-hydroxyphenyl]-D-glucitol (i.e., a choline salt of Compound A) at a dose of 3 mg/kg (calculated as Compound A), each being administered orally once a day for 2 weeks. On the day following the final administration, the liver was collected from each mouse under ether anesthesia, frozen in liquid nitrogen and then stored at −80° C.
Liver triglyceride content was measured in the following manner.
1. A portion (50 to 150 mg) of each liver frozen and stored at −80° C. was taken to an Assist tube. 2. After addition of methanol (2 mL), the liver sample was homogenized with a POLYTRON (KINEMATICA). 3. To the homogenate, chloroform (4 mL) was added and vigorously stirred at room temperature for 10 minutes. 4. Milli-Q water (1 mL) was further added and vigorously stirred. 5. The sample was centrifuged in a low speed centrifuge (Hitachi, Ltd., Japan) (2,500 rpm, 5 min, room temperature). 6. A portion of the lower layer (total volume: 4.5 mL) was taken to an Eppendorf tube and evaporated in a centrifugal evaporator (Sakuma Seisakusho, Japan) to remove the solvent. 7. The residue in the Eppendorf tube was dissolved again by addition of ethanol (10 μL). 8. Triglyceride E-Test Wako reagent (1 mL, Wako Pure Chemical Industries, Ltd., Japan) was added to the resulting solution, and triglycerides were quantified. 9. From the result obtained above, the triglyceride content per g of liver was calculated for each sample. The data were expressed as mean±standard error.
(§1) The test was conducted in the same manner as shown in Example 1, except that this test was conducted with 3 groups of 8 animals, and the first group was administered with vehicle (0.5% methylcellulose) at a dose of 10 mL/kg, the second group was administered with a co-crystal (1:1 molar ratio) of (1S)-1,5-anhydro-1-[3-(1-benzothiophen-2-ylmethyl)-4-fluorophenyl]-D-glucitol (Compound B) and L-proline at a dose of 3 mg/kg (calculated as Compound B), and the third group was administered with a control compound, 2-(4-methoxybenzyl)phenyl 6-O-ethoxycarbonyl-β-D-glucopyranoside (hereinafter also referred to as Compound X, whose structural formula is shown below) disclosed in Patent Document 1 (supra) at a dose of 36 mg/kg, each being administered orally once a day for 2 weeks. Then, the liver triglyceride content was measured for each group in the same manner as shown in Example 1.
as §1, with “Compound B” for “(1S)-1,5-anhydro-1-[3-(1-benzothiophen-2-ylmethyl)-4-fluorophenyl]-D-glucitol (Compound B)”, “T-1095 disclosed in Patent Document 2 (supra), i.e., 3-(benzo[b]furan-5-yl)-2′,6′-dihydroxy-4′-methylpropiophenone 2′-O-(6-O-methoxycarbonyl)-β-D-glucopyranoside” for “2-(4-methoxybenzyl)phenyl 6-O-ethoxycarbonyl-β-D-glucopyranoside”, “Y,” for “X,”, “below)” for “below) disclosed in Patent Document 1 (supra)”, “34” for “36”
The test was conducted in the same manner as shown in Example 1. […]

[2] = tested on: SGLT; details: disclosed in Patent Documents 3, 5 and 6; cited from earlier work
[3] = tested on: CDAA diet-fed Wistar rats; test: Nonalcoholic steatohepatitis model, CDAA diet-fed rats: hepatic fibrosis score; format: in vivo; details: Example 5, FIG. 3; co-crystal of Compound B and L-proline 3 mg/kg orally once a day for 5 weeks; five-point scale 0-4; versus CDAA diet vehicle group
Method: This test was conducted by reference to a document (Biochem Biophys Res Commun., 2004, 315(1), 187-195). Wistar rats (male, purchased from Charles River Japan, Inc.) were used. The rats were fed with CDAA diet (choline-deficient L-amino acid-defined diet (Choline Deficient and Iron Supplemented L-Amino Acid Defined Rat Diet, Dyets)) or normal control diet (Choline and Iron Supplemented L-Amino Acid Defined Rat Diet, Dyets) ad libitum. At 9 weeks of age, they were measured for their body weight and divided into groups of equal body weight, followed by initiation of the test (10 animals per group). […] The second and third groups were fed with CDAA diet, and the second group was administered with vehicle (0.5% methylcellulose) at a dose of 5 mL/kg, while the third group was administered with a co-crystal (1:1 molar ratio) of Compound B and L-proline at a dose of 3 mg/kg (calculated as Compound B). […] After a portion of the liver was fixed in 10% neutral buffered formalin, paraffin sections (3 μm) were prepared in a standard manner and subjected to van Gieson staining Fibrosis was evaluated by reference to the Brunt classification (Clinical Practice Guidelines for NASH/NAFLD, edited by the Japan Society of Hepatology, 2006), based on a five-point scale of 0, 1, 2, 3 and 4 (see Table 4).

[4] = tested on: MCD diet-fed Wistar rats; test: Nonalcoholic steatohepatitis model, MCD diet-fed rats: liver histopathology scores; format: in vivo; details: co-crystal of Compound B and L-proline 3 mg/kg orally once a day for 16 weeks, five-point scale 0-4, versus MCD diet vehicle group
Method: This test was conducted by reference to a document (J. Hepatol., 2003, 39, 756-764). Wistar rats (male, purchased from Charles River Japan, Inc.) were used. The rats were fed with MCD diet (methionine/choline-deficient diet, MP Biochemicals) or normal control diet (methionine/choline control diet, MP Biochemicals) ad libitum. At 9 weeks of age, they were measured for their body weight and divided into groups of equal body weight, followed by initiation of the test (10 animals per group). The first group was fed with normal control diet and administered with vehicle (0.5% methylcellulose) at a dose of 5 mL/kg. The second and third groups were fed with MCD diet, and the second group was administered with vehicle (0.5% methylcellulose) at a dose of 5 mL/kg, while the third group was administered with a co-crystal (1:1 molar ratio) of Compound B and L-proline at a dose of 3 mg/kg (calculated as Compound B). Each drug was administered orally once a day for 16 weeks. On the day following the final administration, the liver was collected from each rat under ether anesthesia and a portion of the liver was fixed in 10% neutral buffered formalin. […]

[5] = tested on: db/db mice; details: disclosed in Patent Document 2; cited from earlier work

OC[C@H]1O[C@@H](c2cc(Cc3cc4cccccc-4c3)ccc2O)[C@H](O)[C@@H](O)[C@@H]1O [Compound A, (1S)-1,5-anhydro-1-[5-(azulen-2-ylmethyl)-2-hydroxyphenyl]-D-glucitol]
Effect on liver triglyceride content (in words) ([1]; Example 1, 3 mg/kg orally once a day for 2 weeks): significantly improved
Liver triglyceride content ([1]; Example 1, choline salt of Compound A, 3 mg/kg (calculated as Compound A) orally once a day for 2 weeks, vehicle 60.0 ± 8.4): 30.7 ± 5.4 mg/g liver
SGLT inhibitory activity [2]: shows SGLT inhibitory activity

OC[C@H]1O[C@@H](c2ccc(F)c(Cc3cc4ccccc4s3)c2)[C@H](O)[C@@H](O)[C@@H]1O [Compound B, (1S)-1,5-anhydro-1-[3-(1-benzothiophen-2-ylmethyl)-4-fluorophenyl]-D-glucitol]
Pathological score of hepatic fibrosis [3]: significantly improved
Pathological score of inflammatory cell infiltration ([4]; Example 4, FIG. 1): significantly improved
Pathological score of hepatic fibrosis ([4]; Example 4, FIG. 2): significantly improved
Effect on liver triglyceride content (in words) ([1]; Example 2, 3 mg/kg orally once a day for 2 weeks): significantly improved
Liver triglyceride content ([1]; Example 2, co-crystal of Compound B and L-proline, 3 mg/kg (calculated as Compound B) orally once a day for 2 weeks, vehicle 52.8 ± 4.9): 34.8 ± 1.9 mg/g liver
Effect on liver triglyceride content (in words) ([1]; Example 3, 3 mg/kg orally once a day for 2 weeks): significantly improved
Liver triglyceride content ([1]; Example 3, co-crystal of Compound B and L-proline, 3 mg/kg (calculated as Compound B) orally once a day for 2 weeks, vehicle 59.7 ± 6.2): 41.2 ± 5.1 mg/g liver
SGLT inhibitory activity [2]: shows SGLT inhibitory activity

CCOc1ccc(Cc2cc([C@@H]3O[C@H](CO)[C@@H](O)[C@H](O)[C@H]3O)ccc2Cl)cc1 [Compound C, (1S)-1,5-anhydro-1-[4-chloro-3-(4-ethoxybenzyl)phenyl]-D-glucitol]
Effect on liver triglyceride content (in words) ([1]; Example 6, 3 mg/kg orally once a day for 2 weeks): significantly improved
Liver triglyceride content ([1]; Example 6, 3 mg/kg orally once a day for 2 weeks, vehicle 60.2 ± 7.1): 28.6 ± 3.9 mg/g liver

COC(=O)OC[C@H]1O[C@@H](Oc2cc(C)cc(O)c2C(=O)CCc2ccc3occc3c2)[C@H](O)[C@@H](O)[C@@H]1O [Compound Y, 3-(benzo[b]furan-5-yl)-2′,6′-dihydroxy-4′-methylpropiophenone 2′-O-(6-O-methoxycarbonyl)-β-D-glucopyranoside, reference compound]
Liver triglyceride content ([1]; Example 3, 34 mg/kg orally once a day for 2 weeks, vehicle 59.7 ± 6.2): 59.7 ± 8.9 mg/g liver
Blood triglyceride levels [5]: reduced blood triglyceride levels

CCOC(=O)OC[C@H]1O[C@@H](Oc2ccccc2Cc2ccc(OC)cc2)[C@H](O)[C@@H](O)[C@@H]1O [Compound X, 2-(4-methoxybenzyl)phenyl 6-O-ethoxycarbonyl-β-D-glucopyranoside, reference compound]
Liver triglyceride content ([1]; Example 2, 3 mg/kg orally once a day for 2 weeks, vehicle 52.8 ± 4.9): 57.9 ± 4.5 mg/g liver
Effect on liver triglyceride content (in words) ([1]; Example 2, 36 mg/kg orally once a day for 2 weeks): no significant effect
Effect on liver triglyceride content (in words) ([1]; Example 3, 34 mg/kg orally once a day for 2 weeks): no significant effect
